Measured values reported in patent US7511065B2, “Mixed lineage kinase modulators” (Eli Lilly and Company, priority 2002, dated 2009).

Molecular target: T1, MLK-7 (Homo sapiens, UniProt Q9NYL2)
T1 construct: GST; His tag; made in house; host or cells: Sf9 insect cells (baculovirus, pVL1392)
Experiment: In vitro assay of purified MLK-7 kinase activity (33P transfer from ATP to myelin basic protein)
Assay type: biochemical
Settings: recombinant GST-tagged MLK-7 at 1 nm, 30 uM ATP, 5 uM MBP substrate, 2 hours room temperature; read-out: MLK7 IC50
Excerpt: In Vitro Assay of Purified Mixed Lineage Kinase 7 (MLK-7) Activity:
Briefly, recombinant glutathione-s-transferase (GST) tagged MLK-7 is expressed in Sf9 cells using a recombinant baculovirus created using baculovirus transfer vector pVL1392 modified to contain a GST and histidine tag. The recombinant protein is purified over a glutathione column and subsequently used for in vitro kinase assays with myelin basic protein (MBP) as the substrate for phosphorylation. The in vitro kinase reaction is run with recombinant MLK-7 at 1 nm and various concentrations of test compound in a reaction mixture containing 2 mM DTT, 30 uM ATP, 5 mM MgCl2, 5 uM MBP, 4% DMSO, 5 uCi 33P in 44 mM HEPES, (pH 7.4). The reaction is carried out for 2 hours at room temperature and then stopped by the addition of phosphoric acid to 5.5%. The phosphorylated MBP is collected on a filter and radioactivity associated with the membrane measured using a scintillation counter. Inhibitors are identified by the ability to reduce the transfer of radioactive phosphate from ATP to MBP compared to controls run without test compound.
IC50 values, defined as the concentration of test compound required to decrease the transfer of radioactive phosphate from ATP to MBP by 50%, are then determined. Ki values (which refers to the dissociation constant of an enzyme-antagonist complex and serves as an index of ligand binding) for each respective test compound can also be calculated by application of the Cheng-Prusoff equation as described in Cheng et al., Relationship Between The Inhibition Constant (Ki) and The Concentration of Inhibitor Which Causes 50% Inhibition (IC50) of an Enzymatic Reaction, Biochem. Pharmacol., 22: […]; (1973).
Representative compounds of the present invention have an IC50 in the MLK-7 kinase assay of ≦10,000 nM Table I (see infra.) provides IC50 data from the afore mentioned MLK-7 kinase assay for a representative sample of the exemplified compounds of the present invention.

T1 sequence (Q9NYL2 1-455 isoform Q9NYL2-2): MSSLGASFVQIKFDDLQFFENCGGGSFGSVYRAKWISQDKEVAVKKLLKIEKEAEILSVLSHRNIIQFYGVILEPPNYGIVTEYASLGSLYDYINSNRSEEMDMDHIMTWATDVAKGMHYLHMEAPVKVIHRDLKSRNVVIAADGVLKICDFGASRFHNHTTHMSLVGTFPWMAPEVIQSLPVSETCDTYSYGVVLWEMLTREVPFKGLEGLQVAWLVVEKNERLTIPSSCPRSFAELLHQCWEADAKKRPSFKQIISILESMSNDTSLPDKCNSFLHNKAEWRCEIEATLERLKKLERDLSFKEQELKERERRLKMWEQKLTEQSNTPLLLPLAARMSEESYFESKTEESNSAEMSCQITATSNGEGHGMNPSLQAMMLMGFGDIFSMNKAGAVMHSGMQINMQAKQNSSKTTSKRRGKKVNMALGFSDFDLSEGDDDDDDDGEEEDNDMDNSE

Row | Structure (SMILES) | IC50
1 | O=C(O)c1ccccc1-c1ccc2c(-c3c(-c4ccccn4)nn4c3CCC4)ccnc2c1 [Example 44, 2-[4-(2-pyridin-2-yl-5,6-dihydro-4H-pyrrolo[1,2-b]pyrazol-3-yl)quinolin-7-yl]benzoic Acid Trifluoroacetic Acid] | ≤ 10000 nM
2 | CC(C)Cc1ccc(-c2ccc3c(-c4c(-c5ccccn5)nn5c4CCC5)ccnc3c2)cc1 [Example 45, 7-(4-Isobutylphenyl)-4-(2-pyridin-2-yl-5,6-dihydro-4H-pyrrolo[1,2-b]pyrazol-3-yl)quinoline Trifluoroacetic Acid] | ≤ 1000 nM
3 | O=C(O)COc1ccc(-c2ccc3c(-c4c(-c5ccccn5)nn5c4CCC5)ccnc3c2)cc1 [Example 46, {4-[4-(2-pyridin-2-yl-5,6-dihydro-4H-pyrrolo[1,2-b]pyrazol-3-yl)quinolin-7-yl]phenoxy}acetic Acid Trifluoroacetic Acid] | ≤ 100 nM
4 | c1ccc(-c2nn3c(c2-c2ccnc4cc(-c5cc6ccccc6s5)ccc24)CCC3)nc1 [Example 47, 7-Benzo[b]thiophen-2-yl-4-(2-pyridin-2-yl-5,6-dihydro-4H-pyrrolo[1,2-b]pyrazol-3-yl)quinoline Trifluoroacetic Acid] | ≤ 1000 nM
5 | c1ccc(-c2nn3c(c2-c2ccnc4cc(-c5cc6ccccc6o5)ccc24)CCC3)nc1 [Example 48, 7-Benzofuran-2-yl-4-(2-pyridin-2-yl-5,6-dihydro-4H-pyrrolo[1,2-b]pyrazol-3-yl)quinoline Trifluoroacetic Acid] | ≤ 100 nM
6 | c1ccc(-c2nn3c(c2-c2ccnc4cc(-c5ccsc5)ccc24)CCC3)nc1 [Example 50, 4-(2-pyridin-2-yl-5,6-dihydro-4H-pyrrolo[1,2-b]pyrazol-3-yl)-7-thiophen-3-yl-quinoline Trifluoroacetic Acid] | ≤ 100 nM
7 | c1ccc(-c2nn3c(c2-c2ccnc4cc(-c5ccoc5)ccc24)CCC3)nc1 [Example 51, 7-Furan-3-yl-4-(2-pyridin-2-yl-5,6-dihydro-4H-pyrrolo[1,2-b]pyrazol-3-yl)quinoline Trifluoroacetic Acid] | ≤ 100 nM
8 | c1ccc(-c2nn3c(c2-c2ccnc4cc(-c5ccc(C6CCCCC6)cc5)ccc24)CCC3)nc1 [Example 53, 7-(4-Cyclohexyl-phenyl)-4-(2-pyridin-2-yl-5,6-dihydro-4H-pyrrolo[1,2-b]pyrazol-3-yl)-quinoline Trifluoroacetic Acid] | ≤ 10000 nM
9 | Clc1ccc(-c2ccc3c(-c4c(-c5ccccn5)nn5c4CCC5)ccnc3c2)cc1Cl [Example 55, 7-(3,4-Dichlorophenyl)-4-(2-pyridin-2-yl-5,6-dihydro-4H-pyrrolo[1,2-b]pyrazol-3-yl)-quinoline] | ≤ 1000 nM
10 | Cc1cccc(-c2nn3c(c2-c2ccnc4cc(-c5ccc(C(=O)O)cc5)ccc24)CCC3)n1 [Example 57, 4-{4-[2-(6-Methyl-pyridin-2-yl)-5,6-dihydro-4H-pyrrolo[1,2-b]pyrazol-3-yl]-quinolin-7-yl}-benzoic acid] | ≤ 100 nM
11 | Cc1cccc(-c2nn3c(c2-c2ccnc4cc(-c5ccc(CCC(=O)O)cc5)ccc24)CCC3)n1 [Example 58, 3-(4-{4-[2-(6-Methyl-pyridin-2-yl)-5,6-dihydro-4H-pyrrolo[1,2-b]pyrazol-3-yl]-quinolin-7-yl}-phenyl)-propionic acid] | ≤ 100 nM
12 | Cc1cccc(-c2nn3c(c2-c2ccnc4cc(-c5ccc(F)cc5)ccc24)CCC3)n1 [Example 59, 7-(4-Fluoro-phenyl)-4-[2-(6-methyl-pyridin-2-yl)-5,6-dihydro-4H-pyrrolo[1,2-b]pyrazol-3-yl]-quinoline] | ≤ 100 nM
13 | COc1ccc(-c2ccc3c(-c4c(-c5cccc(C)n5)nn5c4CCC5)ccnc3c2)cc1 [Example 60, 7-(4-Methoxy-phenyl)-4-[2-(6-methyl-pyridin-2-yl)-5,6-dihydro-4H-pyrrolo[1,2-b]pyrazol-3-yl]-quinoline] | ≤ 100 nM
14 | Cc1cccc(-c2nn3c(c2-c2ccnc4cc(-c5ccccc5)ccc24)CCC3)n1 [Example 61, 7-Phenyl-4-[2-(6-methyl-pyridin-2-yl)-5,6-dihydro-4H-pyrrolo[1,2-b]pyrazol-3-yl]-quinoline Trifluoroacetic Acid] | ≤ 100 nM
15 | Cc1cccc(-c2nn3c(c2-c2ccnc4cc(-c5cccs5)ccc24)CCC3)n1 [Example 62, 4-[2-(6-Methyl-pyridin-2-yl)-5,6-dihydro-4H-pyrrolo[1,2-b]pyrazol-3-yl]-7-thiophen-2-yl-quinoline Trifluoroacetic Acid] | ≤ 100 nM
16 | Cc1cccc(-c2nn3c(c2-c2ccnc4cc(-c5cccc([N+](=O)[O-])c5)ccc24)CCC3)n1 [Example 63, 4-[2-(6-Methyl-pyridin-2-yl)-5,6-dihydro-4H-pyrrolo[1,2-b]pyrazol-3-yl]-7-(3-nitro-phenyl)quinoline] | ≤ 100 nM
17 | Cc1cccc(-c2nn3c(c2-c2ccnc4cc(-c5ccc(Cl)cc5)ccc24)CCC3)n1 [Example 64, 7-(4-Chloro-phenyl)-4-[2-(6-methyl-pyridin-2-yl)-5,6-dihydro-4H-pyrrolo[1,2-b]pyrazol-3-yl]-quinoline] | ≤ 1000 nM
18 | c1ccc(-c2nn3c(c2-c2ccnc4cc(-c5ccco5)ccc24)CCC3)nc1 [Example 65, 7-Furan-2-yl-4-(2-Pyridin-2-yl-5,6-dihydro-4H-pyrrolo[1,2-b]pyrazol-3-yl)quinoline Trifluoroacetic Acid] | ≤ 100 nM
19 | c1ccc(-c2nn3c(c2-c2ccnc4cc(-c5nccs5)ccc24)CCC3)nc1 [Example 66, 4-(2-Pyridin-2-yl-5,6-dihydro-4H-pyrrolo[1,2-b]pyrazol-3-yl)-7-thiazol-2-yl-quinoline Trifluoroacetic Acid] | ≤ 100 nM
20 | c1ccc(-c2nn3c(c2-c2ccnc4cc(-c5cnccn5)ccc24)CCC3)nc1 [Example 67, 7-Pyrazin-2-yl-4-(2-Pyridin-2-yl-5,6-dihydro-4H-pyrrolo[1,2-b]pyrazol-3-yl)quinoline Ditrifluoroacetic Acid] | ≤ 1000 nM
21 | c1ccc(-c2ccc3c(-c4c(-c5ccccn5)nn5c4CCC5)ccnc3c2)nc1 [Example 68, 7-Pyridin-2-yl-4-(2-Pyridin-2-yl-5,6-dihydro-4H-pyrrolo[1,2-b]pyrazol-3-yl)quinoline Ditrifluoroacetic Acid] | ≤ 100 nM
22 | c1ccc(-c2nn3c(c2-c2ccnc4cc(-c5ccc[nH]5)ccc24)CCC3)nc1 [Example 69, 4-(2-pyridin-2-yl-5,6-dihydro-4H-pyrrolo[1,2-b]pyrazol-3-yl)-7-(1H-pyrrol-2-yl)quinoline Ditrifluoroacetic Acid] | ≤ 100 nM
23 | c1ccc(-c2nn3c(c2-c2ccnc4cc(-c5cc6ccccc6[nH]5)ccc24)CCC3)nc1 [Example 70, 7-(1H-Indol-2-yl)-4-(2-pyridin-2-yl-5,6-dihydro-4H-pyrrolo[1,2-b]pyrazol-3-yl)quinoline Ditrifluoroacetic Acid] | ≤ 100 nM
24 | c1ccc(-c2nn3c(c2-c2ccnc4cc(-c5cc[nH]c5)ccc24)CCC3)nc1 [Example 71, 4-(2-pyridin-2-yl-5,6-dihydro-4H-pyrrolo[1,2-b]pyrazol-3-yl)-7-(1H-pyrrol-3-yl)quinoline Ditrifluoroacetic Acid] | ≤ 100 nM
25 | c1ccc(-c2nn3c(c2-c2ccnc4cc(C5CCCCC5)ccc24)CCC3)nc1 [Example 72, 7-Cyclohexyl-4-(2-pyridin-2-yl-5,6-dihydro-4H-pyrrolo[1,2-b]pyrazol-3-yl)quinoline Trifluoroacetic Acid] | ≤ 10000 nM
26 | OCCOc1ccc(-c2ccc3c(-c4c(-c5ccccn5)nn5c4CCC5)ccnc3c2)cc1 [Example 73, 2-{4-[4-(2-Pyridin-2-yl-5,6-dihydro-4H-pyrrolo[1,2-b]pyrazol-3-yl)quinolin-yl]phenoxy}ethanol Trifluoroacetic Acid] | ≤ 100 nM
27 | O=C(O)Cc1ccc(-c2ccc3c(-c4c(-c5ccccn5)nn5c4CCC5)ccnc3c2)cc1 [Example 74, {4-[4-(2-pyridin-2-yl-5,6-dihydro-4H-pyrrolo[1,2-b]pyrazol-3-yl)quinolin-7-yl]phenyl}acetic Acid Trifluoroacetic Acid] | ≤ 100 nM
28 | CS(=O)(=O)c1ccc(-c2ccc3c(-c4c(-c5ccccn5)nn5c4CCC5)ccnc3c2)cc1 [Example 75, 7-(4-Methanesulfonylphenyl)-4-(2-pyridin-2-yl-5,6-dihydro-4H-pyrrolo[1,2-b]pyrazol-3-yl)quinoline Trifluoroacetic Acid] | ≤ 100 nM
29 | NCCc1ccc(-c2ccc3c(-c4c(-c5ccccn5)nn5c4CCC5)ccnc3c2)cc1 [Example 76, 2-{4-[4-(2-pyridin-2-yl-5,6-dihydro-4H-pyrrolo[1,2-b]pyrazol-3-yl)quinolin-7-yl]phenyl}ethylamine Ditrifluoroacetic Acid] | ≤ 100 nM
30 | Cc1ccc(-c2ccc3c(-c4c(-c5ccccn5)nn5c4CCC5)ccnc3c2)cc1 [Example 77, 4-(2-pyridin-2-yl-5,6-dihydro-4H-pyrrolo[1,2-b]pyrazol-3-yl)-7-p-tolylquinoline Trifluoroacetic Acid] | ≤ 100 nM
